# Data: US6838416B2, “Herbicidal 5-benzyloxymethyl-1,2-isoxazoline derivatives” (Korea Research Institute of Chemical Technology, priority 2000, dated 2005)
# Columns and labels:
# ORYSA (3-leaf stage) = test: Assay for herbicidal activity, paddy pots: phytotoxicity to transplanted rice seedlings; assay type: in vivo, Oryza sativa L.; settings: three weeks after application, 0 untreated control, 100 complete kill
# From the text: (§1) To evaluate herbicidal activity against the paddy weeds in the paddy rice (ORYSA: Oryza sativa L.), the herbicidal activity of the compounds of the invention was compared to that of the compound No.109 (compound A) disclosed in U.S. Pat. […] The paddy weeds tested were ECHOR (Echinochloa crus-galli var. oryzicola), SCPJU (Scirpus juncoides ROXB), MOOVA (Monochoria vaginalis […] (Cyperus serotinus ROTTB), and SAGPY (Sagittaria pygmaea MTQ). The vessels employed were plastic pots having an area of 140 cm^2 and filled with a sandy loam soil containing 1.2% organic matter (pH 6).
# ORYSA (seed) = test: Assay for herbicidal activity, paddy pots: phytotoxicity to seeded (pregerminated) rice; assay type: in vivo, Oryza sativa L.; settings: three weeks after application, 0 untreated control, 100 complete kill
# From the text: as §1
# ECHOR (seed) = test: Assay for herbicidal activity, paddy pots: ECHOR; assay type: in vivo, Echinochloa crus-galli var. oryzicola; settings: three weeks after application, 0 untreated control, 100 complete kill
# Procedure, shortened: (§2)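 Herbicidal effect and rice injury were rated in paddy-style plastic pots with a surface area of 140 cm^2. The soil was a sandy loam with 1.2% organic matter and a pH of 6.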
# SCPJU (seed) = test: Assay for herbicidal activity, paddy pots: SCPJU; assay type: in vivo, Scirpus juncoides ROXB; settings: three weeks after application, 0 untreated control, 100 complete kill
# Procedure, shortened: (§3)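 Sandy loam soil (1.2% organic matter, pH 6) was filled into 140 cm^2 pots kept under paddy conditions. The test compounds were then applied, and injury to rice and weed species was rated.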
# MOOVA (seed) = test: Assay for herbicidal activity, paddy pots: MOOVA; assay type: in vivo, Monochoria vaginalis PRESL; settings: three weeks after application, 0 untreated control, 100 complete kill
# Procedure, shortened: as §3
# CYPSE (tuber) = test: Assay for herbicidal activity, paddy pots: CYPSE; assay type: in vivo, Cyperus serotinus ROTTB; settings: three weeks after application, 0 untreated control, 100 complete kill
# Procedure, shortened: as §2
# SAGPY (tuber) = test: Assay for herbicidal activity, paddy pots: SAGPY; assay type: in vivo, Sagittaria pygmaea MTQ; settings: three weeks after application, 0 untreated control, 100 complete kill
# Procedure, shortened: as §2
# paddy weeds = test: Greenhouse herbicidal assays, overall statements on paddy weeds; assay type: in vivo
# From the text: To evaluate herbicidal activity against the paddy weeds in the paddy rice (ORYSA: Oryza sativa L.), the herbicidal activity of the compounds of the invention was compared to that of the compound No.109 (compound A) disclosed in U.S. Pat. No. 4,983,210 which has a similar structure with that of the present invention. The paddy weeds tested were ECHOR (Echinochloa crus-galli var. oryzicola), SCPJU (Scirpus juncoides ROXB), MOOVA (Monochoria vaginalis PRESL), CYPSE (Cyperus serotinus ROTTB), and SAGPY (Sagittaria pygmaea MTQ).
# The vessels employed were plastic pots having an area of 140 cm^2 and filled with a sandy loam soil containing 1.2% organic matter (pH 6). Rice seedlings at the 3-leaf stage (ORYSA: Oryza sativa L.) and pregerminated seeds of rice were transplanted at the depth of 2 cm or seeded on the soil surface, respectively. Then the seeds of ECHOR, SCPJU, and MOOVA were seeded and the tubers of CYPSE and SAGPY also planted on the soil surface in the above plastic pot, wherein the pots were watered at the depth of 3 cm just after planting.
# Two days after planting, a solution of the test compound and a non-ionic emulsifier (Tween-20) in 50% acetone, was diluted with water to a concentration of 0.016, 0.063, 0.25, 1.0, and 4.0 kg/ha, respectively and applied evenly to the test pots. […]
smiles,measurement,setting,value
"CC1(COCc2c(F)cccc2F)CC(c2cccs2)=NO1 (stereo not shown) [Compound A, reference compound]","ORYSA (3-leaf stage) phytotoxicity, visual percentage grading",ORYSA (3-leaf stage); 0.016 kg/ha,0%
same,"ORYSA (3-leaf stage) phytotoxicity, visual percentage grading",ORYSA (3-leaf stage); 0.063 kg/ha,0%
same,"ORYSA (3-leaf stage) phytotoxicity, visual percentage grading",ORYSA (3-leaf stage); 0.250 kg/ha,0%
same,"ORYSA (3-leaf stage) phytotoxicity, visual percentage grading",ORYSA (3-leaf stage); 1.000 kg/ha,0%
same,"ORYSA (3-leaf stage) phytotoxicity, visual percentage grading",ORYSA (3-leaf stage); 4.000 kg/ha,0%
same,"ORYSA (seed) phytotoxicity, visual percentage grading",ORYSA (seed); 0.016 kg/ha,0%
same,"ORYSA (seed) phytotoxicity, visual percentage grading",ORYSA (seed); 0.063 kg/ha,0%
same,"ORYSA (seed) phytotoxicity, visual percentage grading",ORYSA (seed); 0.250 kg/ha,20%
same,"ORYSA (seed) phytotoxicity, visual percentage grading",ORYSA (seed); 1.000 kg/ha,100%
same,"ORYSA (seed) phytotoxicity, visual percentage grading",ORYSA (seed); 4.000 kg/ha,100%
same,"ECHOR (seed) herbicidal activity, visual percentage grading",ECHOR (seed); 0.016 kg/ha,0%
same,"ECHOR (seed) herbicidal activity, visual percentage grading",ECHOR (seed); 0.063 kg/ha,0%
same,"ECHOR (seed) herbicidal activity, visual percentage grading",ECHOR (seed); 0.250 kg/ha,20%
same,"ECHOR (seed) herbicidal activity, visual percentage grading",ECHOR (seed); 1.000 kg/ha,100%
same,"ECHOR (seed) herbicidal activity, visual percentage grading",ECHOR (seed); 4.000 kg/ha,100%
same,"SCPJU (seed) herbicidal activity, visual percentage grading",SCPJU (seed); 0.016 kg/ha,0%
same,"SCPJU (seed) herbicidal activity, visual percentage grading",SCPJU (seed); 0.063 kg/ha,0%
same,"SCPJU (seed) herbicidal activity, visual percentage grading",SCPJU (seed); 0.250 kg/ha,10%
same,"SCPJU (seed) herbicidal activity, visual percentage grading",SCPJU (seed); 1.000 kg/ha,70%
same,"SCPJU (seed) herbicidal activity, visual percentage grading",SCPJU (seed); 4.000 kg/ha,100%
same,"MOOVA (seed) herbicidal activity, visual percentage grading",MOOVA (seed); 0.016 kg/ha,0%
same,"MOOVA (seed) herbicidal activity, visual percentage grading",MOOVA (seed); 0.063 kg/ha,0%
same,"MOOVA (seed) herbicidal activity, visual percentage grading",MOOVA (seed); 0.250 kg/ha,80%
same,"MOOVA (seed) herbicidal activity, visual percentage grading",MOOVA (seed); 1.000 kg/ha,80%
same,"MOOVA (seed) herbicidal activity, visual percentage grading",MOOVA (seed); 4.000 kg/ha,100%
same,"CYPSE (tuber) herbicidal activity, visual percentage grading",CYPSE (tuber); 0.016 kg/ha,0%
same,"CYPSE (tuber) herbicidal activity, visual percentage grading",CYPSE (tuber); 0.063 kg/ha,0%
same,"CYPSE (tuber) herbicidal activity, visual percentage grading",CYPSE (tuber); 0.250 kg/ha,10%
same,"CYPSE (tuber) herbicidal activity, visual percentage grading",CYPSE (tuber); 1.000 kg/ha,100%
same,"CYPSE (tuber) herbicidal activity, visual percentage grading",CYPSE (tuber); 4.000 kg/ha,100%
same,"SAGPY (tuber) herbicidal activity, visual percentage grading",SAGPY (tuber); 0.016 kg/ha,0%
same,"SAGPY (tuber) herbicidal activity, visual percentage grading",SAGPY (tuber); 0.063 kg/ha,0%
same,"SAGPY (tuber) herbicidal activity, visual percentage grading",SAGPY (tuber); 0.250 kg/ha,100%
same,"SAGPY (tuber) herbicidal activity, visual percentage grading",SAGPY (tuber); 1.000 kg/ha,100%
same,"SAGPY (tuber) herbicidal activity, visual percentage grading",SAGPY (tuber); 4.000 kg/ha,100%
same,"herbicidal activity, in words",paddy weeds; at the higher doses,active
same,"herbicidal activity, in words",paddy weeds; at the lower doses,inactive
